Where “and” joins values, the source holds several entries; their conditions need not be identical. Equal values may be shown once.
Key:
[1] = Stability in enzyme-free control buffer; format: physicochemical; conditions: pH 7.4
Source text: (§1) A fundamental evaluation in drug development is the assessment of absorption, distribution, metabolism, excretion, and pharmacokinetics (ADME/PK) (Eddershaw et al., 2000, Drug Discovery Today 5(9): 409-414). […] Drug stability upon exposure to human liver microsomes and liver S9 cellular fractions is a common in vitro assay to approximate in vivo, liver-based drug metabolism (Richardson et al., 2016 Drug Metabolism Letters 10:83-90). First-pass metabolism is also often approximated in vitro using intestinal microsome and cellular S9 fractions (Hatley et al., 2017, Biopharmaceuticals & Drug Disposition, 38(2):155-160). […] Supernatants were analyzed for the presence of candidate prodrugs (parent molecule) and psilocin (the predicted metabolite) using Orbitrap LC-MS (Thermo Scientific) using previously described methods (Menendez-Perdomo et al., 2021, J Mass Spectrom, 56: e4683). […] Assay concentrations (μM) of both parent ‘prodrug’ molecule and psilocin metabolite, as quantified through LC-MS using routine standard curve procedures, were plotted as functions of assay time (minutes). The metabolism rate (T1/2) was determined from the metabolism curve plot using the one phase decay feature of GraphPad PRISM software (Version 9.2.0). The quantity of parent prodrug at time zero was set as 100%.

[2] = In vitro metabolic stability / psilocin release, liver fractions (HLM, HLS9); format: in vitro ADME, human; conditions: HLM and HLS9, 2 hours, 37° C.
Source text: as §1, with “100%. […]” for “100%.”

[3] = In vitro metabolic stability / psilocin release, AB serum; format: in vitro ADME; conditions: 10% human AB serum
Source text: as §1, with “100%. […]” for “100%.”

[4] = Mouse pharmacokinetic (PK) study, parent compound and psilocin metabolite in plasma; format: in vivo, C57Bl/6 mice; conditions: mouse; for Plasma concentration of psilocin: 24 h
Source text: Briefly, the procedure was as follows. […] 19, 2022.

With `CN(C)CCc1c[nH]c2cccc(OP(=O)(O)O)c12` [psilocybin, reference compound] the “Stability in assay buffer” value [1] was “stability of psilocybin was confirmed in assay buffer”, the “Stability / conversion to psilocin in liver fractions” value [2] was “stable in liver fractions with no conversion to psilocin” and the “Stability / conversion to psilocin in serum” value [3] was “stable in serum with no conversion to psilocin”. For the same compound, the tmax ([4]; male, C57Bl/6, plasma, iv, 1 mg/kg i.v., individual animals, read-out: tmax of administered (parent) compound) was 5 min, the “Detectability of administered compound in plasma, i.v. administered animals” value ([4]; 1 mg/kg i.v.) was “only detectable in i.v. administered animals” and the “Detectability of administered compound in plasma, orally administered animals” value ([4]; oral, any dose (1, 3, 10 mg/kg)) was “not detectable in orally administered animals at any dose”. The “Plasma concentration of administered (parent) compound” value (“Plasma concentration of administered” for short) ([4]; 1 mg/kg i.v., 5 min, individual animals, 1 mg/kg) was 19.7 ng/mL and 76.8 ng/mL and 334 ng/mL, the “Plasma concentration of administered” value ([4]; 1 mg/kg i.v., 0.25 h, individual animals, 1 mg/kg) was 3.32 ng/mL and 8.95 ng/mL and 27.2 ng/mL and the “Plasma concentration of administered” value ([4]; 1 mg/kg i.v., 0.5 h, individual animals, 1 mg/kg) was “No Peak and 2.35 ng/mL and 6.21 ng/mL”. The “Plasma concentration of administered” value ([4]; 1 mg/kg i.v., 1 h, individual animals, 1 mg/kg) was “No Peak”, the “Plasma concentration of administered” value ([4]; 1 mg/kg i.v., 2 h, individual animals) was “No Peak” and the “Plasma concentration of administered” value ([4]; 1 mg/kg i.v., 4 h, individual animals) was “No Peak”. The “Plasma concentration of administered” value ([4]; 1 mg/kg i.v., 6 h, individual animals) was “No Peak”, the “Plasma concentration of administered” value ([4]; 1 mg/kg i.v., 8 h, individual animals, 1 mg/kg) was “No Peak” and the “tmax of administered (parent) compound” value ([4]; 1 mg/kg i.v., individual animals) was 5 min. For the same compound, the “Cmax of administered (parent) compound” value ([4]; 1 mg/kg i.v., individual animals, 1 mg/kg) was 19.7 ng/mL and 76.8 ng/mL and 334 ng/mL, the “Cmax of administered (parent) compound” value ([4]; 1 mg/kg i.v., mean ± SD) was 144 ± 167 ng/mL and the “tmax of administered (parent) compound” value ([4]; 1 mg/kg i.v., mean ± SD) was 5 ± 0 min. For the same compound, the “Plasma concentration of psilocin” value ([4]; prodrug 1.56 mg/kg oral (nominal 1 mg/kg), individual animals) was “BLQ (BLQ denotes below the lower limit of quantitation (0.2 ng/ml).)” and the “Plasma concentration of psilocin” value ([4]; prodrug 3 mg/kg oral, individual animals) was “BLQ (BLQ denotes below the lower limit of quantitation (0.2 ng/ml).)”.

From patent US12065404B2, “C4-carboxylic acid-substituted tryptamine derivatives and methods of using” (priority 2022, dated 2024)
